In ChEMBL document CHEMBL3600350, “Peptide HIV fusion inhibitors: modifications and conjugations” (Medchemcomm, 2014):
Each block holds one compound with its values, some of them ahead of it. Numbered stars: 1 amine (or outer) side, 2 acyl side, 3 side chain; on linkers, the order of the positions; unused ones are H or OH. Square brackets hold non-standard residues; d marks the D form. Peptide text beside a SMILES is read from it. X1 = CCCCCCCCCCCCCCCC(=O)NC(=O)CC[C@H](N[*:1])C(=O)[*:2]

Legend:
[1] = system: Human immunodeficiency virus 1; experiment: Antiviral activity against HIV-1 HXB2 assessed as inhibition of viral infection in human TZM-bl cells after 18 hrs by steady-glo luciferase reporter gene assay; assay type: functional, organism-based; details: Human immunodeficiency virus 1, HXB2, TZM-bl
[2] = system: Human immunodeficiency virus 1; experiment: Antiviral activity against HIV-1 HXB2 assessed as inhibition of viral fusion with human TZM-bl cells after 6 hrs by luciferase reporter gene assay; assay type: functional, organism-based; details: Human immunodeficiency virus 1, HXB2, TZM-bl
[3] = Inhibition of HIV-1 HXBc2 env-mediated cell fusion between viral infected human Jurkat cells and non infected human Jurkat E6-1 cells after 6 hrs by DiI/DiD probe-based flow cytometric analysis; details: Human immunodeficiency virus 1, HXBc2, Jurkat

IC50 [2]: 1.3 nM
Compound: CCCCCCCCCCCCCCCC(=O)[C@H](CCCCN)NC(=O)[C@H](CCC(=O)O)NC(=O)[C@H](CC(C)C)NC(=O)[C@H](CC(C)C)NC(=O)[C@H](CCC(=O)O)NC(=O)[C@H](CCC(N)=O)NC(=O)[C@H](CCC(=O)O)NC(=O)[C@H](CC(N)=O)NC(=O)[C@H](CCCCN)NC(=O)[C@H](CCC(=O)O)NC(=O)[C@H](CCC(N)=O)NC(=O)[C@H](CCC(N)=O)NC(=O)[C@H](CC(N)=O)NC(=O)[C@H](CCC(N)=O)NC(=O)[C@H](CO)NC(=O)[C@H](CCC(=O)O)NC(=O)[C@H](CCC(=O)O)NC(=O)[C@@H](NC(=O)[C@H](CC(C)C)NC(=O)[C@H](CO)NC(=O)[C@H](Cc1c[nH]cn1)NC(=O)[C@@H](NC(=O)[C@H](CC(C)C)NC(=O)[C@H](CO)NC(=O)[C@@H](NC(=O)[C@@H](N)Cc1ccc(O)cc1)[C@H](C)O)[C@@H](C)CC)[C@@H](C)CC

IC50 [1]: 121 nM
Compound: CCCCCCCCCCCCCCCC(O)C(CO)NC(=O)N[C@@H](CC(C)C)C(=O)N[C@@H](CC(C)C)C(=O)N[C@@H](CCC(N)=O)C(=O)N[C@@H](CC(C)C)C(=O)N[C@H](C(=O)N[C@H](C(=O)N[C@@H](Cc1c[nH]c2ccccc12)C(=O)NCC(=O)N[C@H](C(=O)N[C@@H](CCCCN)C(=O)N[C@@H](CCC(N)=O)C(=O)N[C@@H](CC(C)C)C(=O)N[C@@H](CCC(N)=O)C(=O)N[C@@H](C)C(=O)N[C@@H](CCCNC(=N)N)C(=O)N[C@H](C(=O)N[C@@H](CC(C)C)C(=O)O)[C@@H](C)CC)[C@@H](C)CC)C(C)C)[C@H](C)O (some centres undefined)

IC50 [1]: > 4000 nM
Compound: CC[C@H](C)[C@H](NC(=O)[C@H](CC(C)C)NC(=O)[C@H](CO)NC(=O)[C@H](Cc1c[nH]cn1)NC(=O)[C@@H](NC(=O)[C@H](CC(C)C)NC(=O)[C@H](CO)NC(=O)[C@@H](NC(=O)[C@@H](N)Cc1ccc(O)cc1)[C@H](C)O)[C@@H](C)CC)C(=O)N[C@@H](CCC(=O)O)C(=O)N[C@@H](CCC(=O)O)C(=O)N[C@@H](CO)C(=O)N[C@@H](CCC(N)=O)C(=O)N[C@@H](CC(N)=O)C(=O)N[C@@H](CCC(N)=O)C(=O)N[C@@H](CCC(N)=O)C(=O)N[C@@H](CCC(=O)O)C(=O)N[C@@H](CCCCN)C(=O)N[C@@H](CC(N)=O)C(=O)N[C@@H](CCCCN)C(=O)O

IC50 [2]: 2860 nM
Compound: H-YTSLIHSLIEESQNQQEKNEQELLE-OH

More lines, now with the values behind:

Compound: CC[C@H](C)[C@H](NC(=O)CNC(=O)[C@H](Cc1c[nH]c2ccccc12)NC(=O)[C@@H](NC(=O)[C@@H](NC(=O)[C@H](CC(C)C)NC(=O)[C@H](CCC(N)=O)NC(=O)[C@H](CC(C)C)NC(=O)[C@@H](N)CC(C)C)[C@H](C)O)C(C)C)C(=O)N[C@@H](CCCCN)C(=O)N[C@@H](CCC(N)=O)C(=O)N[C@@H](CC(C)C)C(=O)N[C@@H](CCC(N)=O)C(=O)N[C@@H](C)C(=O)N[C@@H](CCCNC(=N)N)C(=O)N[C@H](C(=O)N[C@@H](CC(C)C)C(=O)O)[C@@H](C)CC
IC50 [1]: > 4000 nM

Compound: CCCCCCCCCCCCCCCC(O)C(CO)NC(=O)NC(=O)[C@H](CCCCN)NC(=O)[C@H](CC(N)=O)NC(=O)[C@H](CCCCN)NC(=O)[C@H](CCC(=O)O)NC(=O)[C@H](CCC(N)=O)NC(=O)[C@H](CCC(N)=O)NC(=O)[C@H](CC(N)=O)NC(=O)[C@H](CCC(N)=O)NC(=O)[C@H](CO)NC(=O)[C@H](CCC(=O)O)NC(=O)[C@H](CCC(=O)O)NC(=O)[C@@H](NC(=O)[C@H](CC(C)C)NC(=O)[C@H](CO)NC(=O)[C@H](Cc1c[nH]cn1)NC(=O)[C@@H](NC(=O)[C@H](CC(C)C)NC(=O)[C@H](CO)NC(=O)[C@@H](NC(=O)[C@@H](N)Cc1ccc(O)cc1)[C@H](C)O)[C@@H](C)CC)[C@@H](C)CC (some centres undefined)
IC50 [1]: 350 nM

Compound: CCCCCCCCCCCCCCCC(O)C(CO)NCNC(=O)[C@@H](CCCCN)NC(=O)[C@H](CC(C)C)NC(=O)[C@@H](NC(=O)[C@H](CCCNC(=N)N)NC(=O)[C@H](C)NC(=O)[C@H](CCC(N)=O)NC(=O)[C@H](CC(C)C)NC(=O)[C@H](CCC(N)=O)NC(=O)[C@H](CCCCN)NC(=O)[C@@H](NC(=O)CNC(=O)[C@H](Cc1c[nH]c2ccccc12)NC(=O)[C@@H](NC(=O)[C@@H](NC(=O)[C@H](CC(C)C)NC(=O)[C@H](CCC(N)=O)NC(=O)[C@H](CC(C)C)NC(=O)[C@@H](N)CC(C)C)[C@H](C)O)C(C)C)[C@@H](C)CC)[C@@H](C)CC (some centres undefined)
IC50 [1]: 287 nM

Compound: CCCCCCCCCCCCCCCC(=O)NC(=O)CC[C@H](N)C(=O)N[C@@H](CC(C)C)C(=O)N[C@@H](CC(C)C)C(=O)N[C@@H](CO)C(=O)NCC(=O)N[C@H](C(=O)N[C@H](C(=O)N[C@@H](CCC(N)=O)C(=O)N[C@@H](CCC(N)=O)C(=O)N[C@@H](CCC(N)=O)C(=O)N[C@@H](CC(N)=O)C(=O)N[C@@H](CC(N)=O)C(=O)N[C@@H](CC(C)C)C(=O)N[C@@H](CC(C)C)C(=O)N[C@@H](CCCNC(=N)N)C(=O)N[C@@H](C)C(=O)N[C@H](C(=O)N[C@@H](CCC(=O)O)C(=O)N[C@@H](C)C(=O)N[C@@H](CCC(N)=O)C(=O)N[C@@H](CCC(N)=O)C(=O)N[C@@H](Cc1c[nH]cn1)C(=O)N[C@@H](CC(C)C)C(=O)N[C@@H](CC(C)C)C(=O)N[C@@H](CCC(N)=O)C(=O)O)[C@@H](C)CC)C(C)C)[C@@H](C)CC (H-[X1]LLSGIVQQQNNLLRAIEAQQHLLQ-OH)
IC50 [3]: 10 nM

Compound: H-LLSGIVQQQNNLLRAIEAQQHLLQ-OH
IC50 [3]: 338 nM
